# Measured values taken from US20260256756A1, “USE OF PIPERIDINE ALKENE COMPOUND IN PREPARATION OF DRUG FOR TREATING CANCER” (JIANGSU HANSOH PHARMACEUTICAL GROUP CO., LTD., priority 2023, published 2026).
# Tests used:
# [1] = system: human colorectal cancer cell line DLD-1 BRCA2−/− xenograft tumor; assay: Subcutaneous xenograft tumor model of human colorectal cancer cell line DLD-1 BRCA2−/−; assay type: in vivo, BALB/c nude mice; settings: DLD-1 BRCA2 deletion
# Source text: • 1. Experimental objective: To evaluate the in vivo efficacy of compound 1 in a subcutaneous xenograft tumor model of human colorectal cancer cell line DLD-1 BRCA2^−/− in nude mice. • 2. Reagent • RPMI-1640 medium (22400-089, Gibco), fetal bovine serum (FBS) (10099-141C, Gibco) • Phosphate buffer (PBS, 10010-023, Gibco), HPMC (D180HB4005, Shanghai Colorcon Coating Technology Ltd.) • 0.25% Trypsin-EDTA (25200-056, Gibco), Pen Strep (P/S) (15140-122, Gibco) • 3. Experimental operations and data processing • 3.1 Animals: BALB/c nude mice, 6-8 weeks old, female, purchased from the Laboratory Animal Business Department of Shanghai Institute of Planned Parenthood Research. • 3.2 Cell culture and cell suspension preparation • a. A vial of DLD-1 BRCA2^−/− cells was taken from a cell bank, the cells were thawed with RPMI-1640 medium (RPMI-1640+10% FBS), and the thawed cells were placed in a cell culture flask (with the cell type, date, the name of the culture operator, etc., being marked on the wall of the flask), which were placed in a CO2 incubator for culturing (wherein the temperature of the incubator was 37° C., and the CO2 concentration was 5%). • b. The cells were passaged every three days, and after passage, the cells were placed in the CO2 incubator to continue the culture. This process was repeated until the cell number met the requirements for in vivo efficacy. • c. The cultured cells were collected, counted using a full-automatic cell counter, and resuspended with PBS on the basis of the counting results to prepare a cell suspension (at a density of 5×10^7/mL), which was then placed in an ice box for later use. • 3.3 Cell inoculation • a. Before inoculation, the nude mice were marked with disposable universal ear tags for mice and rats. • b. At the time of inoculation, the cell suspension was mixed uniformly, 0.1-1 mL of the cell suspension was aspirated using a 1 mL syringe with air bubbles expelled, and the syringe was then placed on an ice bag for later use. • c. The nude mouse was secured with the left hand, the right dorsal area near the right shoulder (inoculation site) of the nude mouse was disinfected with a 75% alcohol cotton ball, and inoculation was initiated after 30 seconds. • d. The experimental nude mice were inoculated sequentially (0.1 mL of cell suspension per mouse). • 3.4 Tumor measurement, grouping and administration in tumor-bearing mice • a. Tumor was measured on days 10-18 after inoculation depending on the tumor growth, and the tumor size was calculated.
# tumor volume (mm^3)=length (mm)×width (mm)×width (mm)/2 Tumor volume calculation: • b. According to the body weight of tumor-bearing mice and the size of the tumor, the mice were grouped by random grouping. • c. According to the grouping results, the test drug was started to be administered (administration method: oral administration; administration volume: 10 mL/kg; administration frequency: once/day; administration cycle: 28 days; vehicle: 0.5% HPMC). • d. Tumor measurement and weighing were performed twice a week after starting administration of test drugs. • e. The animals were euthanized at the end of the experiment. • f. Data processing was performed using software such as GraphPad Prism. The tumor inhibitory efficacy of the compound was evaluated by TGI (%) and ΔT/ΔC (%). ΔT/ΔC (%)=(T−T0)/(C−C0)×100, where T and C are the tumor volumes of the treatment group and the vehicle control group at the end of the experiment, respectively, and T0 and C0 are the tumor volumes of the treatment group and the vehicle control group at the beginning of the experiment, respectively. Tumor growth inhibition (TGI) (%)=100−ΔT/ΔC (%). Tumor growth inhibition (TGI) (%)=100−(T−T0)/T0×100 when tumor regression occurs • 4. Experimental results and conclusions
# [2] = system: BRCA2 Knockout DLD-1 cells; assay: In vitro proliferation inhibition (CellTiter-Glo), BRCA2 Knockout DLD-1; assay type: cell-based; settings: Homo sapiens; DLD-1, colorectal cancer, BRCA2 deletion; 6-10 days culture
# Source text: […]
# Experimental data processing method: The luminescence signal value was used to calculate the inhibition rate. […]
# [3] = 0.3 mg/kg oral once/day, Day 28
# [4] = 100 mg/kg oral once/day, Day 28
IC50 [2],Structure (SMILES),"Tumor volume (Mean ± SEM) ([1]; 0.3 mg/kg oral once/day, Day 0)","T/C [1, 3]","TGI [1, 3]","Tumor volume (Mean ± SEM) [1, 3]","Tumor volume (Mean ± SEM) ([1]; 100 mg/kg oral once/day, Day 0)","T/C [1, 4]","TGI [1, 4]","Tumor volume (Mean ± SEM) [1, 4]"
0.0026 ± 0.0006 µM,CCc1cc2ncc(CN3CCN(c4ccc(C(=O)NC)nc4)CC3)cc2[nH]c1=O [AZD5305],154 ± 12 mm^3,6.20%,140.20%,92 ± 22 mm^3,,,,
0.16 ± 0.066 µM,O=C(c1cc(Cc2n[nH]c(=O)c3ccccc23)ccc1F)N1CCN(C(=O)C2CC2)CC1 [Olaparib],,,,,154 ± 13 mm^3,63.43%,40.81%,942 ± 112 mm^3
